# Reference: patent US20220023389A1, “VASODILATORS FOR USE IN THE TREATMENT OF A RETINAL ISCHEMIC DISORDER” (University of Copenhagen, priority 2018, published 2022)
# Where no end group is shown, it is not given here.
# Assays:
# [1] = molecular target: calcitonin receptor-like receptor (CLR) in complex with receptor activity-modifying protein 1 (RAMP1) (Homo sapiens, UniProt O60894+Q16602); conditions: removal of residues 1-7; cited from earlier work
# [2] = system: retina (photoreceptors, bipolar cells); assay: Electroretinography (scotopic A-wave and B-wave amplitude) after ET-1 induced retinal ischemia; format: in vivo, Sprague dawley rat; conditions: day 21, ET-1 induced ischemia right eye (5 μL 500 μM), ET-1 alone/vehicle
# Method: Rats were anesthetized with 90 mg/kg ketamine & 10 mg/kg xylazine (i.p). Oxybuprocain 0.4% Anesthetic was applied topically to the eyes.
# Guided under a stereoscopic microscope to avoid lens and retinal injury, 5 μl intravitreal injection of 500 uM ET-1 (Phoenix Pharmaceuticals, Inc.) was performed using a digital controller and UltraMicroPump III, with NanoFil 10 μl syringe (WPI) connected to intraoucular injector with a 34 g bevelled needle.
# Injection was performed through the sclera, inserted approximately 1 mm posterior to the corneal limbus at a 45° angle to avoid contact with the lens capsule and direct the contents, 1.5 mm into the vitreous chamber, in the right eye (FIG. 1). The needle remained in the vitreous cavity for 30 seconds after injection and was then gently withdrawn. […]
# Day 0—ET-1 is administered intravitreally alone or in combination with the current invention. Fundus is recorded before and after injection. […]
# After overnight dark adaptation for at least 12 hours, the animals were anesthetized with 90 mg/kg ketamine and 10 mg/kg xylazine delivered by a single intraperitoneal injection. […] ERGs were recorded from both eyes simultaneously with a gold wire electrode loops, placed on the corneal apex, with a drop of saline applied to the corneal surface for hydration during the testing procedure. […] The scotopic A-wave amplitude and B-wave amplitude were recorded and evaluated.
# calcitonin receptor-like receptor (CLR) in complex with receptor activity-modifying protein 1 (RAMP1), sequence (Q16602 23-461): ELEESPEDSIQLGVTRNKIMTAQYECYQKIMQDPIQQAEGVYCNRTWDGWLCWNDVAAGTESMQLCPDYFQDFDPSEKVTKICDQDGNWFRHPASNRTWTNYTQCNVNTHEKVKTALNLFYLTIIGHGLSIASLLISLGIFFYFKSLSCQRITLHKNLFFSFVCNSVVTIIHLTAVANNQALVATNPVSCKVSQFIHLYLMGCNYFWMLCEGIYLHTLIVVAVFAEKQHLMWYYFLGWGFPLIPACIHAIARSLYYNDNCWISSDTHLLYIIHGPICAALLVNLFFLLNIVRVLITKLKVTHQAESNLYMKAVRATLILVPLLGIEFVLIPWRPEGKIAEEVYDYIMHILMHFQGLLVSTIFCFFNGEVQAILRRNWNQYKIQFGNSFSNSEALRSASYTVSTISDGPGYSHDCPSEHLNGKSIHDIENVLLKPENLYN
# calcitonin receptor-like receptor (CLR) in complex with receptor activity-modifying protein 1 (RAMP1), sequence (O60894 27-148): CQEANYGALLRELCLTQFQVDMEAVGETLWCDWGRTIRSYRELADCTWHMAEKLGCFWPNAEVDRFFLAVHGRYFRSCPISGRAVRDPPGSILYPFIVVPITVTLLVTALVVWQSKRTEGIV
Substance,binding potency relative to CGRP (less potent) [1],efficacy [1],avg. max A-wave amplitude [2],avg. max B-wave amplitude [2]
CGRP8-37,approximately 10 fold,lost all efficacy,–,–
"Endothelin-1 (CSCSSLMDKECVYFCHLDIIW; ends and bridges not checked; cysteine pairing not given here; UniProt P05305 53-73, looked up) [ET-1, vasoconstrictive peptide injected intravitreally to induce retinal ischemia]",–,–,457±40 μV,804±188 μV
